Columns and labels:
[1] = target: T1, JAK2 (Homo sapiens, UniProt O60674); test: Cellular JAK2 activity assay: EPO-stimulated STAT5 phosphorylation in TF-1 cells; assay type: cell-based; set-up: endogenous in cells; host or cells: TF-1 cells (ATCC); details: EPO (10 U/mL), pSTAT5, read-out: IC50 Cell JAK2
Procedure: (§1) In TF-1 cells, IL-6 stimulation leads to phosphorylation of STAT3 through JAK1, while EPO stimulants phosphorylation of STAT5 via JAK2.
(§2) TF-1 cells were obtained from American Type Culture Collection (ATCC). TF-1 cells were starved overnight (cell density was 100,000 cells/well at plating) in OptiMEM medium without phenol red containing 0.5% fetal bovine serum (FBS), 0.1 mM non-essential amino acids (NEAA), 1 mM sodium pyruvate at 37° C. The compound was serially diluted in DMSO, added to TF-1 cells and incubated at 37° C. for 20 minutes. The final concentration of DMSO was 0.2%. Then, human recombinant cytokine IL-6 (30 ng/mL) or EPO (10 U/mL) was added to the wells containing TF-1 cells. After the cell plate was incubated for 30 minutes, cells were lysed, and the phosphorylation of STAT3 (IL-6) or STAT5 (EPO) in the cell lysate (pSTAT3/total STAT3 Elisa Kit: CST #7300C/CST #7305C; pSTAT5 and total STAT5 Elisa Kit: Abcam #ab205715) was measured. The IC50 value was determined as the concentration of the compound required to inhibit STAT phosphorylation by 50% relative to the measured DMSO control.

[2] = target: T2, JAK3 protein (Homo sapiens, UniProt P52333); test: In vitro JAK3 kinase activity assay (HTRF kinEASE TK); assay type: biochemical; details: 0.75 μM ATP, 25 minutes, room temperature; read-out: IC50 JAK3 (enzyme activity assay)
T2 construct: purchased Carna Biosciences
T2 sequence (P52333 1-1124): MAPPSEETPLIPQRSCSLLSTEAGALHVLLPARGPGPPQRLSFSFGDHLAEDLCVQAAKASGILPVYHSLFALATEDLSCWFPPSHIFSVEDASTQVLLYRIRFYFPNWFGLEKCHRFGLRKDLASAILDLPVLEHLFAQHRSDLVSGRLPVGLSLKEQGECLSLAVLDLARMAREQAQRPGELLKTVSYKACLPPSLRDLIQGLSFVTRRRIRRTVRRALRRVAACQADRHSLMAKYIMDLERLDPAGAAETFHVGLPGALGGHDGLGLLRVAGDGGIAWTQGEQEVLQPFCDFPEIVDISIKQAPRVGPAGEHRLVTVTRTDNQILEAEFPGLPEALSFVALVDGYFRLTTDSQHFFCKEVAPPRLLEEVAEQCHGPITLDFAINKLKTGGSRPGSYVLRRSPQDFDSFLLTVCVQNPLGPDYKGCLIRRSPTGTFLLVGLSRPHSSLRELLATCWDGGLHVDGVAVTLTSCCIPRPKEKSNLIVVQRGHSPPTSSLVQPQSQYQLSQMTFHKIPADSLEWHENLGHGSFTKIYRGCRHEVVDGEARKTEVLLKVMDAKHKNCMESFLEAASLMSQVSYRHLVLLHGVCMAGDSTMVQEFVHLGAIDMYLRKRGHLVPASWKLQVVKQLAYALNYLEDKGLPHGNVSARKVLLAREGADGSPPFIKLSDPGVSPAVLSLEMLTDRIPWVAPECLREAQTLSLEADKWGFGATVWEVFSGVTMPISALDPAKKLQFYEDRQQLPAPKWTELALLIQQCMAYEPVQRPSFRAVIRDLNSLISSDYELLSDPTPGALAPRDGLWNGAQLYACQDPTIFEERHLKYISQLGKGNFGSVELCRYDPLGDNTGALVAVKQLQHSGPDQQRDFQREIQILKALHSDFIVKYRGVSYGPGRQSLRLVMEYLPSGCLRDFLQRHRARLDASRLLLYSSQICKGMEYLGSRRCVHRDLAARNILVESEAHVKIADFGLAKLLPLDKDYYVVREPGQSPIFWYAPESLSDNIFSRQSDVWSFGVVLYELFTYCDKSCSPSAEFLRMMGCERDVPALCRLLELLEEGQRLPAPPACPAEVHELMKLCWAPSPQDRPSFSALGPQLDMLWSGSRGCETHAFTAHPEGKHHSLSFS
Procedure: (§3) Recombinant human JAK1 protein was purchased from Thermo Fisher. JAK2 and JAK3 proteins were purchased from Carna Biosciences. HTRF kinEASE TK kit was purchased from Cisbio Bioassays. BioTek microplate reader Synergy Neo 2 was used to read the plate.
(§4) The test compounds were of 4-fold serial dilution, and the final concentration ranged from 10 μM to 0.04 nM in duplicates for each concentration. The concentration of DMSO in the reaction system was 1%.
(§5) The reaction included 0.004 ng/gi JAK 3 protein kinase, 1 μM TK Substrate-biotin peptide substrate, 0.75 μM ATP, 1× enzymatic buffer, 5 mM MgCl2, and 1 mM DTT. The detection plate was White Proxiplate 384-Plus plate (PerkinElmer), and the mixture (10 μl) was reacted at room temperature for 25 minutes.
(§6) Reaction detection: 10 μl of detection reagent was added to the reaction plate containing final concentration of 0.125 μM of SA-XL665 and 5 μl 1×TK-Antibody. The mixture was incubated overnight at room temperature. The plate was read using Synergy Neo 2.
(§7) Data analysis: 665/620 Ratio was converted into inhibition rate (%) through the following formula: inhibition rate (%)=(Ratiomax−Ratiotest)/(Ratiomax−Ratiomin)×100%. Ratiomax is a positive control without detection compound, Ratiomin is a negative control without detection compound and kinase, Ratiotest is the detection value of each concentration of different compounds. 4 parameter curve fitting was performed to measure the IC50 (nM) values. The details are shown in, Table 1.

[3] = Mouse pharmacokinetics; assay type: in vivo; details: CD-1 mice, 5 mg/kg, P.O.; for Cmax / half-life / AUC(0-t): mouse, po, plasma; for AUC(0-t): read-out: AUC0-24 hr
Procedure: Test compound was intravenously (IV) or orally (PO) administrated to CD-1 mice. Blood samples were collected at different time points as indicated below. The concentration of the compounds in the mouse plasma was determined by LC-MS/MS and related parameters were calculated. The details are as follows: the required amount of the test product was taken to prepare a solution of the required concentration for intravenous injection or oral administration. The age of the animals was about 6-8 weeks at the beginning of the dosing experiment. Blood sampling time points are 0.083 h, 0.25 h, 0.5 h, 1 h, 2 h, 4 h, 8 h and 24 h after compound administration. The Phoenix WinNonlin 7.0 software was used to calculate the pharmacokinetic parameters through the blood drug concentration data at different time points.

[4] = target: T3, JAK1 (Homo sapiens, UniProt P23458); test: In vitro JAK1 kinase activity assay (HTRF kinEASE TK); assay type: biochemical; set-up: purchased Thermo Fisher; details: 1.1 μM ATP, 60 minutes, room temperature; read-out: IC50 JAK1 (enzyme activity assay)
Procedure: as §3, §4
The reaction included 0.5 ng/μl JAK 1 protein kinase, 1 μM TK Substrate-biotin peptide substrate, 1.1 μM ATP, 1× enzymatic buffer, 5 mM MgCl2, 1 mM MnCl2, 1 mM DTT, and 2.5 nM SEB. The detection plate was White Proxiplate 384-Plus plate (PerkinElmer), and the mixture (10 μl) was reacted at room temperature for 60 minutes.
as §6, §7

[5] = target: T1, JAK2; test: In vitro JAK2 kinase activity assay (HTRF kinEASE TK); assay type: biochemical; set-up: purchased Carna Biosciences; details: 2.7 μM ATP, 25 minutes, room temperature; read-out: IC50 JAK2 (enzyme activity assay)
Procedure: as §3, §4
as §5, with “included 0.001 ng/μl” for “included 0.004 ng/gi”, “JAK 2” for “JAK 3”, “substrate, 2.7” for “substrate, 0.75”
as §6, §7

[6] = target: T3, JAK1; test: Cellular JAK1 activity assay: IL-6-stimulated STAT3 phosphorylation in TF-1 cells; assay type: cell-based; set-up: endogenous in cells; host or cells: TF-1 cells (ATCC); details: IL-6 (30 ng/mL), pSTAT3, read-out: IC50 Cell JAK1
Procedure: as §1, §2

T1 sequence (O60674 whole entry): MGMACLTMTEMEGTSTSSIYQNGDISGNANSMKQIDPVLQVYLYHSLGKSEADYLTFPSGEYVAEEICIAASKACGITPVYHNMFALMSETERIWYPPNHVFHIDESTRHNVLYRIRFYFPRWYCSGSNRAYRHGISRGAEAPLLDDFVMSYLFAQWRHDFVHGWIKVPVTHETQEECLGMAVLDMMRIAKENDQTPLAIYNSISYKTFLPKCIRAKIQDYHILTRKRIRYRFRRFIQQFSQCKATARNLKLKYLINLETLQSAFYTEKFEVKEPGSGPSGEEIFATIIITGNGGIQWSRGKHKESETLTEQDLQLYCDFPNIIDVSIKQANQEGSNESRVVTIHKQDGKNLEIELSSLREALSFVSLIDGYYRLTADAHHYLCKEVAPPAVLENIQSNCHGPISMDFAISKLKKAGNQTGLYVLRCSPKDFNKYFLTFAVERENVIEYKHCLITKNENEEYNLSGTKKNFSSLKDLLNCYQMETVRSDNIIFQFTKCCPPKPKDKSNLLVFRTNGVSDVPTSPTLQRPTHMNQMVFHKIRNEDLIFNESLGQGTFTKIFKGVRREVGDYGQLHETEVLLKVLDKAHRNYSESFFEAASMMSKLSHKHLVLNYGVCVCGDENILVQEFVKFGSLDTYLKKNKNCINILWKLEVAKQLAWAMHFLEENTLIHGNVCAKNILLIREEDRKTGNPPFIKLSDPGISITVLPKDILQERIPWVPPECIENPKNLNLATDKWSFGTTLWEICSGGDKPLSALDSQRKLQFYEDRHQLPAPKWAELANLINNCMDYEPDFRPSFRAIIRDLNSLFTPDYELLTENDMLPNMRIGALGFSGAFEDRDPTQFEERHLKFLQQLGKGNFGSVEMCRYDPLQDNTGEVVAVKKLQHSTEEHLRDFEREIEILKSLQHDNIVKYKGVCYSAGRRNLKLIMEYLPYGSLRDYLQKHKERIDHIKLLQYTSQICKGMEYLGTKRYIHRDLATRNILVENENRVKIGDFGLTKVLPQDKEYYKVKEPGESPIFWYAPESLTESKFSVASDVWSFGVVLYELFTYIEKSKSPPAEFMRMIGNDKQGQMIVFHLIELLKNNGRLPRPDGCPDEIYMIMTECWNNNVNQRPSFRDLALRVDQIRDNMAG
T3 sequence (P23458 whole entry): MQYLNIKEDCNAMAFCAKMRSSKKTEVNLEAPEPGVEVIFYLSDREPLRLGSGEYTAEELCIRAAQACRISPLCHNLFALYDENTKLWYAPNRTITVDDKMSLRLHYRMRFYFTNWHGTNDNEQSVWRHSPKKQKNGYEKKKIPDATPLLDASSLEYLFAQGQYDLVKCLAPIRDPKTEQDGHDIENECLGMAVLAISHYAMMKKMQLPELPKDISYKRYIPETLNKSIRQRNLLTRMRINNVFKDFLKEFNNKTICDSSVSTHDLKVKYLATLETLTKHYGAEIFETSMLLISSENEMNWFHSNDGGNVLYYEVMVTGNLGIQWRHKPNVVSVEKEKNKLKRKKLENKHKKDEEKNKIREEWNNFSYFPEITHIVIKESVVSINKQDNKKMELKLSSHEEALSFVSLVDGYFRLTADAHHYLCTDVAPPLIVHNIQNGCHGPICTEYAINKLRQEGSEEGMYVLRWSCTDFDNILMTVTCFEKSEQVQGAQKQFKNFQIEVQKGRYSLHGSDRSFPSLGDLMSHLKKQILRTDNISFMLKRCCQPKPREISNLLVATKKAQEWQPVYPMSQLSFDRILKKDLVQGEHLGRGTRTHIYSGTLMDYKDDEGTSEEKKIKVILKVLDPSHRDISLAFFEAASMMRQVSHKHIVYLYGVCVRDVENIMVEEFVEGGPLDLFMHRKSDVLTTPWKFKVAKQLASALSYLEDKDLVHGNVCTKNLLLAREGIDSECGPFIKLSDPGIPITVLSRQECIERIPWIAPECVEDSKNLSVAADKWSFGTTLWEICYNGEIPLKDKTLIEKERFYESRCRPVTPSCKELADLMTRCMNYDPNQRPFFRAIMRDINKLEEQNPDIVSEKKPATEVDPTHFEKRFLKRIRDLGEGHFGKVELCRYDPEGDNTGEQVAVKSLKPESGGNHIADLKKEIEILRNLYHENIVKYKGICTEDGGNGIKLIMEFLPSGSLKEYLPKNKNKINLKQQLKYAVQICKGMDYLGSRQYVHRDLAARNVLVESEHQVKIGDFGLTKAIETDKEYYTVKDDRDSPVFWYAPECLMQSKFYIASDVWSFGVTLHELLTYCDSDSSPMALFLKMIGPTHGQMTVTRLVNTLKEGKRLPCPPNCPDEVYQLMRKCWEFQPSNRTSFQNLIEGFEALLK

IC50 [1] | IC50 [2] | IC50 [4] | IC50 [5] | IC50 [6] | SMILES | F [3] | Cmax [3] | half-life [3] | AUC(0-t) [3]
> 20000 nM | 500 to 10000 nM | < 5 nM | 100 to 10000 nM | < 100 nM | CCC(C(=O)Nc1nccc2c(-c3nc(Nc4cccc(S(C)(=O)=O)c4F)ncc3C)c[nH]c12)N1CCN(C)CC1 (stereo in doubt) [Example 21, (R)—N-(3-(2-((2-Fluoro-3-(methylsulfonyl)phenyl)amino)-5-methylpyrimidin-4-yl)-1H-pyrrolo[2,3-c]pyridin-7-yl)-2-(4-methylpiperazin-1-yl)butanamide] | 97.1% | 264 ng/mL | 2.61 h | 1680 ng·h/mL
10000 to 20000 nM | 500 to 10000 nM | < 5 nM | < 100 nM | 100 to 1000 nM | CCC(C(=O)Nc1nccc2c(-c3nc(Nc4cccc(S(=O)(=O)CC)c4F)ncc3C)c[nH]c12)N1CCN(C)CC1 (centres unmarked) [Example 28] | – | – | – | –
10000 to 20000 nM | < 500 nM | 5 to 50 nM | 100 to 10000 nM | < 100 nM | Cc1cnc(Nc2cccc(S(C)(=O)=O)c2F)nc1-c1c[nH]c2c(NC(=O)NC(C)C)nccc12 [Example 30, 1-(3-(2-((2-Fluoro-3-(methylsulfonyl)phenyl)amino)-5-methylpyrimidin-4-yl)-1H-pyrrolo[2,3-c]pyridin-7-yl)-3-isopropylurea] | – | – | – | –
> 20000 nM | < 500 nM | < 5 nM | < 100 nM | > 1000 nM | COCCNC(=O)Nc1nccc2c(-c3nc(Nc4cccc(S(C)(=O)=O)c4F)ncc3C)c[nH]c12 [Example 32] | – | – | – | –
> 20000 nM | < 500 nM | 5 to 50 nM | 100 to 10000 nM | > 1000 nM | Cc1cnc(Nc2cccc(S(C)(=O)=O)c2F)nc1-c1c[nH]c2c(NC(=O)NC(C)C)ncnc12 [Example 33] | – | – | – | –

SMILES | IC50 [1] | IC50 [2] | IC50 [4] | IC50 [5] | IC50 [6] | F [3] | Cmax [3] | half-life [3] | AUC(0-t) [3]
CC[C@H](C(=O)Nc1nccc2c(-c3nc(Nc4cccc(S(C)(=O)=O)c4F)ncc3C)c[nH]c12)N1CC2CCC(C1)N2C [Example 25, (R)—N-(3-(2-((2-Fluoro-3-(methylsulfonyl)phenyl)amino)-5-methylpyrimidin-4-yl)-1H-pyrrolo[2,3-c]pyridin-7-yl)-2-(8-methyl-3,8-diazabicyclo[3.2.1]octane-3-yl)butanamide] | > 20000 nM | 500 to 10000 nM | < 5 nM | < 100 nM | 100 to 1000 nM | 66.1% | 155 ng/mL | 3.57 h | 946 ng·h/mL

— US12234232B2, “Aromatic heterocyclic compound with kinase inhibitory activity” (SHANGHAI ENNOVABIO PHARMACEUTICALS CO., LTD., priority 2018, dated 2025)
